Values after ≈ are worked out from the molar mass of the structure shown. Like-named read-outs stand apart in the source and are kept apart here.
How the values were obtained:
[1] = tested on: Mycobacterium kansasii 6509/96; assay: MIC, micro method in Šula's semisynthetic medium, M. kansasii clinical isolate; type: cell-based; details: read-out: MIC M. kansasii 6509/96
Mtb 331/88 (i.e., H37Rv) = assay: MIC, micro method in Šula's semisynthetic medium, drug-susceptible Mtb; type: cell-based, Mycobacterium tuberculosis; details: Mycobacterium tuberculosis, H37RV
[2] = tested on: Mycobacterium avium 330/88; assay: MIC, micro method in Šula's semisynthetic medium, M. avium; type: cell-based
HepG2 cells = assay: Cytotoxicity on HepG2 cell line (CellTiter 96); type: cell-based, human; details: read-out: IC50 HepG2
[3] = 330/88, 336 h, read-out: MIC M. avium 330/88
[4] = 330/88, 504 h, read-out: MIC M. avium 330/88

| Structure (SMILES) | MIC ([1]; 6509/96, 168 h) | MIC ([1]; 6509/96, 336 h) | MIC ([1]; 6509/96, 504 h) | MIC (Mtb 331/88 (i.e., H37Rv); 336 h, 14 days) | MIC (Mtb 331/88 (i.e., H37Rv); 504 h, 21 days) | MIC [2, 3] | MIC [2, 4] | MIC ([2]; 330/88, read-out: MIC M. avium) | IC50 (HepG2 cells; Homo sapiens, HepG2, 24 h) | IC50 (HepG2 cells) |
| --- | --- | --- | --- | --- | --- | --- | --- | --- | --- | --- |
| CCCCCCCCCNC(=O)NNC(=O)c1cc([N+](=O)[O-])cc([N+](=O)[O-])c1 [Compound 4i, 2-(3,5-Dinitrobenzoyl)-N-nonylhydrazine-1-carboxamide] | 1 µM (≈ 0.395 µg/mL) | 1 µM (≈ 0.395 µg/mL) | 1 µM (≈ 0.395 µg/mL) | 0.5 µM (≈ 0.198 µg/mL) | 1 µM (≈ 0.395 µg/mL) | 125 µM (≈ 49.4 µg/mL) | 250 µM (≈ 98.9 µg/mL) | 125 to 250 µM (≈ 49.4 to 98.9 µg/mL) | 125 µM |  |
| CCCCCCCCCCNC(=O)NNC(=O)c1cc([N+](=O)[O-])cc([N+](=O)[O-])c1 [Compound 4j, N-Decyl-2-(3,5-dinitrobenzoyl)hydrazine-1-carboxamide] | 1 µM (≈ 0.409 µg/mL) | 2 µM (≈ 0.819 µg/mL) | 4 µM (≈ 1.64 µg/mL) | 1 µM (≈ 0.409 µg/mL) | 1 µM (≈ 0.409 µg/mL) | > 500 µM | > 500 µM |  | 141 µM |  |
| CCCCCCCCCCCNC(=O)NNC(=O)c1cc([N+](=O)[O-])cc([N+](=O)[O-])c1 [Compound 4k, 2-(3,5-Dinitrobenzoyl)-N-undecylhydrazine-1-carboxamide] | 2 µM (≈ 0.847 µg/mL) | 4 µM (≈ 1.69 µg/mL) | 4 µM (≈ 1.69 µg/mL) | 1 µM (≈ 0.423 µg/mL) | 1 µM (≈ 0.423 µg/mL) | > 500 µM | > 500 µM |  | < 100 µM | 99.9 µM |
| CCCCCCCCCCCCNC(=O)NNC(=O)c1cc([N+](=O)[O-])cc([N+](=O)[O-])c1 [Compound 4l, 2-(3,5-Dinitrobenzoyl)-N-dodecylhydrazine-1-carboxamide] | 2 µM (≈ 0.875 µg/mL) | 2 µM (≈ 0.875 µg/mL) | 4 µM (≈ 1.75 µg/mL) | 2 µM (≈ 0.875 µg/mL) | 2 µM (≈ 0.875 µg/mL) | > 250 µM | > 250 µM |  | 166 µM |  |
| CCCCCCCCCCCCCNC(=O)NNC(=O)c1cc([N+](=O)[O-])cc([N+](=O)[O-])c1 [Compound 4m, 2-(3,5-Dinitrobenzoyl)-N-tridecylhydrazine-1-carboxamide] | 2 µM (≈ 0.903 µg/mL) | 2 µM (≈ 0.903 µg/mL) | 4 µM (≈ 1.81 µg/mL) | 2 µM (≈ 0.903 µg/mL) | 4 µM (≈ 1.81 µg/mL) | > 500 µM | > 500 µM |  | 163 µM |  |
| CCCCCCCCCCCCCCNC(=O)NNC(=O)c1cc([N+](=O)[O-])cc([N+](=O)[O-])c1 [Compound 4n, 2-(3,5-Dinitrobenzoyl)-N-tetradecylhydrazine-1-carboxamide] | 4 µM (≈ 1.86 µg/mL) | 8 µM (≈ 3.72 µg/mL) | 8 µM (≈ 3.72 µg/mL) | 4 µM (≈ 1.86 µg/mL) | 8 µM (≈ 3.72 µg/mL) | > 500 µM | > 500 µM |  | 207 µM |  |
| CCCCCCCCCCCCCCCNC(=O)NNC(=O)c1cc([N+](=O)[O-])cc([N+](=O)[O-])c1 [Compound 4o, 2-(3,5-Dinitrobenzoyl)-N-pentadecylhydrazine-1-carboxamide] | 8 µM (≈ 3.84 µg/mL) | 8 µM (≈ 3.84 µg/mL) | 16 µM (≈ 7.67 µg/mL) | 8 µM (≈ 3.84 µg/mL) | 16 µM (≈ 7.67 µg/mL) | > 500 µM | > 500 µM |  | < 100 µM | 82.5 µM |
| CCCCNc1nnc(-c2cc([N+](=O)[O-])cc([N+](=O)[O-])c2)o1 [Compound 5d, N-Butyl-5-(3,5-dinitrophenyl)-1,3,4-oxadiazol-2-amine] | 1 µM (≈ 0.307 µg/mL) | 2 µM (≈ 0.615 µg/mL) | 2 µM (≈ 0.615 µg/mL) | 0.5 µM (≈ 0.154 µg/mL) | 0.5 µM (≈ 0.154 µg/mL) | 64 µM (≈ 19.7 µg/mL) | 125 µM (≈ 38.4 µg/mL) |  | > 250 µM |  |
| CCCCCNc1nnc(-c2cc([N+](=O)[O-])cc([N+](=O)[O-])c2)o1 [Compound 5e, 5-(3,5-Dinitrophenyl)-N-pentyl-1,3,4-oxadiazol-2-amine] | 0.25 µM (≈ 0.0803 µg/mL) | 0.5 µM (≈ 0.161 µg/mL) | 0.5 µM (≈ 0.161 µg/mL) | 0.25 µM (≈ 0.0803 µg/mL) | 0.25 µM (≈ 0.0803 µg/mL) | > 500 µM | > 500 µM |  | > 250 µM |  |
